For data set [1] the following is noted: 298.15 K; 101.33 kPa; Liquid.
Data set [2] in a line: excess molar enthalpy (molar enthalpy of mixing); xn = mol fraction of the nth substance listed. The settings on record: 298.15 K, 101 kPa, Liquid, Flow calorimetry.

SMILES strings stand for the structures. ± gives the expanded uncertainty stated by the source.

For `COC(C)(C)C` [2-methoxy-2-methylpropane], in data set [1], the mass density (commonly the mass of a sample divided by its volume) turned out to be 735.99 ± 0.74 kg/m3.
For the compound `CC1CCCO1` (stereo not drawn) [2-methyltetrahydrofuran], the mass density in data set [1] was found to be 848.1 ± 0.89 kg/m3.
On the same count and under the same terms, to `C=CCCCC` [hex-1-ene] belongs 668.73 ± 1.4 kg/m3.
Turning to `C=CCCCC` [hex-1-ene] + C1CCOC1, the excess molar enthalpy came out at 0.0161 ± 0.000454 kcal/mol in data set [2] (x1 = 0.0501); 0.0304 ± 0.000669 kcal/mol in data set [2] (x1 = 0.097); 0.0446 ± 0.000884 kcal/mol in data set [2] (x1 = 0.1507); 0.055 ± 0.00105 kcal/mol in data set [2] (x1 = 0.1994); 0.0649 ± 0.00122 kcal/mol in data set [2] (x1 = 0.2501); 0.0729 ± 0.00136 kcal/mol in data set [2] (x1 = 0.3003). Also, the excess molar enthalpy in data set [2] (x1 = 0.3499) turned out to be 0.0788 ± 0.00146 kcal/mol; in data set [2] (x1 = 0.3999) it was 0.0834 ± 0.00153 kcal/mol; in data set [2] (x1 = 0.45), 0.0859 ± 0.00158 kcal/mol; in data set [2] (x1 = 0.4977), 0.0876 ± 0.0016 kcal/mol; in data set [2] (x1 = 0.5494) it was 0.0869 ± 0.0016 kcal/mol; in data set [2] (x1 = 0.6006), 0.0844 ± 0.00155 kcal/mol. Moreover, the excess molar enthalpy is 0.0807 ± 0.00148 kcal/mol in data set [2] (x1 = 0.649); 0.0761 ± 0.00141 kcal/mol in data set [2] (x1 = 0.6905); 0.0675 ± 0.00127 kcal/mol in data set [2] (x1 = 0.7499); 0.0587 ± 0.00112 kcal/mol in data set [2] (x1 = 0.7999); 0.0471 ± 0.000932 kcal/mol in data set [2] (x1 = 0.8501); 0.0335 ± 0.000717 kcal/mol in data set [2] (x1 = 0.8995). The excess molar enthalpy in data set [2] (x1 = 0.95) was determined as 0.018 ± 0.000478 kcal/mol.
On to `C1CCOC1` [tetrahydrofuran], for which the mass density in data set [1] was 882.09 ± 0.8 kg/m3.

These data come from the NIST ThermoML archive (doi:10.1016/j.jct.2006.03.020).
